Test results taken from paper PMC6050537, “Inhibition of low-density lipoprotein receptor degradation with a cyclic peptide that disrupts the homodimerization of IDOL E3 ubiquitin ligase” (Chemical Science, 2018).
Residues, ends and D or L forms follow the SMILES beside them.

Legend:
[1] = test system: T1, RING domain of IDOL; experiment: 1H 15N HSQC NMR binding to RING domain
T1 construct: IDOL RING domain (G356-I445) was expressed as TEV cleavable N-terminal HN6-Lysine-Tag; HN6-Lysine-Tag (TEV-cleavable) (N); made in house; host or cells: E. coli (pET vector)
Excerpt: (§1) The lead candidates, cyclo-CTIFLL and cyclo-CFFLYT, were next analyzed for binding to the RING domain of IDOL by ^1H ^15N HSQC NMR. We also assessed the binding of each peptide to the FERM domain of IDOL as a negative control. […] It should be noted that the 3 residues affected by cyclo-CFFLYT (named RINGPep1) form part of the PPI interface in the crystal structure of the homodimerized RING domains of IDOL (Fig. 1c and ESI Fig. 6 ^†).[15] Furthermore, mutation of V431R coupled with a L433R mutation is known to result in a dimer deficient IDOL.[15]
(§2) ^15N-labeled RING and FERM domains were prepared for NMR experiments by buffer exchange using Amicon Ultra-4 Centrifugal Filter Units with 3 kDa molecular weight cut-off membranes. Buffer conditions for the NMR studies were 50 mM TRIS-d11 pH 7.5, 200 mM NaCl, 3 mM TCEP, 10% (v/v) D2O for the RING domain and 25 mM TRIS-d11, 25 mM NaPi, pH 7.5, 300 mM NaCl, 3 mM TCEP, 10% (v/v) D2O for the FERM domain. The protein concentrations were 80 μM and 70 μM, for the RING and FERM domain respectively. Two-dimensional NMR SOFAST-HMQC titration experiments were carried out on a Bruker 600 MHz spectrometer equipped with a cryoprobe. […]

[2] = test system: IDOL homodimerization (434-IDOL fusion) in IDOL RTHS; experiment: IDOL bacterial reverse two-hybrid system (RTHS) drop-spotting; assay type: cell-based, E. coli; details: SICLOPPS-encoded peptide, IPTG 25 μM plus arabinose
Excerpt: We used a previously reported genetically encoded high-throughput screening platform that combines a bacterial reverse two-hybrid system (RTHS)[21],[23]–[25] with a plasmid-encoded library of 3.2 million cyclic hexapeptides using split intein circular ligation of peptides and proteins (SICLOPPS).[26],[27] We began by constructing a bacterial RTHS for IDOL homodimerization. IDOL is expressed as an N-terminal fusion with the 434 bacteriophage repressor, with the 38 amino acid disordered region of the 434 repressor acting as linker. IDOL homodimerization is expected to bring together two 434 proteins to form a functional repressor that binds to the operator sites engineered onto the E. coli chromosome, and prevent the expression of 3 genes downstream that are required for growth and survival on selective media (Fig. 1a). We verified the formation of a functional repressor and suppression of growth on selective media upon IDOL homodimerization by drop-spotting (Fig. 1b), and by ONPG assay (ESI Fig. 1 ^†) as previously detailed.[21] A SICLOPPS CXXXXX library (where X = any canonical amino acid) was prepared as previously detailed[28] and transformed into the IDOL RTHS prior to plating on selective media. After incubation of the selection plates for 48 h, 480 surviving colonies were picked and individually assessed for arabinose-dependent survival on selective media by drop-spotting. […]

[3] = test system: T2, FERM domain of IDOL; experiment: 1H 15N HSQC NMR binding to FERM domain (negative control)
T2 construct: made in house; host or cells: E. coli BL21
Excerpt: as §1, §2

[4] = target: T3, 6× His-tagged, full-length IDOL (Homo sapiens, UniProt Q8WY64); experiment: Surface plasmon resonance (SPR) affinity for IDOL; assay type: binding; details: SPR, immobilized full-length His-IDOL; saturation at highest concentrations not observed; read-out: Kd
T3 construct: Full length IDOL (1–445) was cloned with a TEV cleavable N-terminal 6xHis tag; made in house; host or cells: Spodoptera frugiperda Sf21 (baculovirus, pFastbac1)
T3 sequence (Q8WY64 1-445): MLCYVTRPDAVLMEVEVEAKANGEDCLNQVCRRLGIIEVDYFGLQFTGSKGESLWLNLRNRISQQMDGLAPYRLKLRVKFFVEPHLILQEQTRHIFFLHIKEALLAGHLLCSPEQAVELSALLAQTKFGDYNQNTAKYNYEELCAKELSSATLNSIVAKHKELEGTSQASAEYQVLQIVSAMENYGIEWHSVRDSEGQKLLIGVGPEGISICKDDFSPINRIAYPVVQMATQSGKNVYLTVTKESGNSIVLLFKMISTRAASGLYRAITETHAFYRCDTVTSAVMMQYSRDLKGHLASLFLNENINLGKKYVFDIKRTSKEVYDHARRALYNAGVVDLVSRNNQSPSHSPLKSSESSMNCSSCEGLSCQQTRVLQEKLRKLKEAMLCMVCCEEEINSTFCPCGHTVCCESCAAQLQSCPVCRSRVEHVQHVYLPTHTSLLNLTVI
Excerpt: We initially assessed the affinity of the 6 selected cyclic peptides for IDOL by surface plasmon resonance (SPR). Although saturation at the highest concentrations was not observed, due to hydrophobic effects, Kd values could be determined for five peptides (Table 1). […] The hit rate for our IDOL screen is in line with that for previous SICLOPPS screens.[21],[25] It should be noted that although cyclo-CTIFLL and cyclo-CTLILF contain the same amino acids, changing the order in which these are arranged results in activity loss.
All measurements were performed on a Biacore S200 (GE healthcare) using running buffer 10 mM HEPES, 300 mM NaCl, 1 mM TCEP, 0.05% Tween 20 and 4% DMSO at pH 8.0. In brief, 6× His-tagged, full-length IDOL was immobilized on a NTA-chip (Xantec), to a final level of ∼6000 RU. The chip was pre-loaded with Ni^2+ to facilitate efficient capture of His-tagged protein onto the chip. The activity of the immobilized protein was confirmed using a reference compound.
Supplementary Figure 2. […] Saturation of binding was not observed due to the hydrophobic nature of the peptides
(1 picture or pasted object on this page, not shown here)

With `CC(C)C[C@@H]1NC(=O)[C@H](Cc2ccccc2)NC(=O)[C@H](Cc2ccccc2)NC(=O)[C@H](CS)NC(=O)[C@H]([C@@H](C)O)NC(=O)[C@H](Cc2ccc(O)cc2)NC1=O` [RINGPep1, cyclo-CFFLYT] (HELM PEPTIDE1{C.F.F.L.Y.T}$PEPTIDE1,PEPTIDE1,1:R1-6:R2$$$V2.0) the “chemical shift changes, RING domain of IDOL” value [1] was “modest chemical shift changes for 3 amino acids”, the “growth of IDOL RTHS on selective media” value [2] was “restored” and the “chemical shift changes, FERM domain of IDOL” value [3] was “No changes”. For the same molecule, the Kd [4] was 38.5 ± 34.8 µM.
